Assay results published in patent publication US20150139936A1, “DOSAGE AND ADMINISTRATION OF BISPECIFIC SCFV CONJUGATES IN COMBINATION WITH ANTI-CANCER THERAPEUTICS” (Merrimack Pharmaceuticals, Inc., priority 2012, published 2015).

How the values were obtained:
[1] = cited from earlier work
[2] = oral; cited from earlier work
[3] = Pre-clinical combination efficacy of MM-111; settings: with lapatinib, trastuzumab, paclitaxel or docetaxel

Molecule: CC(=O)O[C@@]12CO[C@@H]1C[C@H](O)[C@@]1(C)C(=O)[C@H](O)C3=C(C)[C@@H](OC(=O)[C@H](O)[C@@H](NC(=O)OC(C)(C)C)c4ccccc4)C[C@@](O)([C@@H](OC(=O)c4ccccc4)[C@H]21)C3(C)C [docetaxel, 1,7β,10β-trihydroxy-9-oxo-5β,20-epoxytax-11-ene-2α,4,13α-triyl 4-acetate 2-benzoate 13-{(2R,3S)-3-[(tert-butoxycarbonyl)amino]-2-hydroxy-3-phenylpropanoate}]
- water solubility [1]: more water soluble than paclitaxel

Molecule: CS(=O)(=O)CCNCc1ccc(-c2ccc3ncnc(Nc4ccc(OCc5cccc(F)c5)c(Cl)c4)c3c2)o1 [lapatinib]
- bioavailability with food consumption [2]: increased

Molecule: MM-111: bispecific anti-ErbB2/anti-ErbB3 antibody, scFv HSA conjugate, SEQ ID NO:1
- combination effect (efficacy) [3]: additive
